Measured values published in publication PMC10652874, “Investigation into the mechanism of action of the antimicrobial peptide epilancin 15X” (Frontiers in Microbiology, 2023).

Test system: S. carnosus TM300
Assay: RNAseq differential gene expression
Format: cell-based, Staphylococcus carnosus
Method: For the RNAseq experiments, epilancin was added at sub-lethal concentration (0.5x MIC) to S. carnosus TM300 once the cultures reached an OD600 of 0.6. RNA was extracted 40 min after the treatment, using a FastRNA Pro Blue kit (MP Biomedicals). Both treated and parallel untreated samples were collected at the same time. Sequencing was performed at the Carver Biotechnology Center (UIUC). For RNAseq analysis, gene counts were read in to R (v3.1.1; [Team, 2014]), and 14/2441 genes were removed because they had fewer than 32 total counts across the six samples. edgeR’s (v3.6.7) TMM normalization ([Robinson and Oshlack, 2010]) plus negative binomial generalized log-linear model ([McCarthy et al., 2012]) was used to test for differential expression between treated and untreated groups, while accounting for pairing of U and T replicates from three different cultures. p-values were adjusted using the false discovery rate method ([Benjamini and Hochberg, 1995]).

[1] = AraC family transcriptional regulator
[2] = S. carnosus TM300, 0.5x MIC, RNA extracted 40 min after treatment

Substance: Epilancin 15X
- fold_change Sca_0118: 2.03
- fold_change Sca_0226: 2.6
- fold_change Sca_0277: 4.82
- fold_change Sca_0326: 2.89
- fold_change Sca_0702: 3.4
- fold_change Sca_1839: 2.65
- fold_change Sca_0283 (4-aminobutyrate aminotransferase): 2.6
- fold_change Sca_1048 (5-bromo-4-chloroindolyl phosphate hydrolysis protein XpaC): 2.07
- fold_change rpsN (30S ribosomal protein S14): 0.49
- fold_change rplS (50S ribosomal protein L19): 0.5
- fold_change Sca_1439 (ABC transporter ATP-binding protein): 2.23
- fold_change Sca_0292 (ATP-binding cassette transporter A): 2.29
- fold_change clpP (ATP-dependent Clp protease proteolytic subunit): 5.08
- fold_change recG (ATP-dependent DNA helicase RecG): 2.72
- fold_change Sca_0180 (ATP:guanido phosphotransferase): 4.91
- fold_change Sca_0313 [1]: 2.06
- fold_change Sca_0314 [1]: 2.39
- fold_change Sca_0315 [1]: 2.4
- fold_change Sca_0113 (ArsR family transcription regulator): 4.25
- fold_change clpB (ClpB chaperone): 10.1
- fold_change clpC (ClpC ATPase family protein): 4.95
- fold_change dltA (D-alanine--poly(phosphoribitol) ligase subunit 1): 2.2
- fold_change dltC (D-alanine--poly(phosphoribitol) ligase subunit 2): 2.03
- fold_change dnaN (DNA polymerase III subunit beta): 2.14
- fold_change dinB (DNA polymerase IV, gene dinP): 2.92
- fold_change dltB (DltB membrane protein): 2.19
- fold_change Sca_2272 (Glycerate kinase): 2.24
- fold_change Sca_0776 (Glyoxalase family protein): 2.76
- fold_change hslO (Hsp33-like chaperonin, gene hsp33): 2.39
- fold_change Sca_0214 (LD-carboxypeptidase family protein): 0.5
- fold_change lexA (LexA repressor): 2.01
- fold_change Sca_0115 (LysR family transcriptional regulator): 2.11
- fold_change moaD (MoaD): 2.46
- fold_change moaE (MoaE): 2.53
- fold_change mobB (MobB): 2.72
- fold_change moaA (Molybdenum cofactor biosynthesis protein A): 2.82
- fold_change nanA (N-acetylneuraminate lyase): 2.13
- expression of vraR, upregulated compared to untreated control [2]: 8 fold
- expression of vraS, upregulated compared to untreated control [2]: 8 fold
- fold_change Sca_0453 (TOPRIM domain-containing protein): 3.05
- fold_change Sca_2234 (TetR family transcriptional regulator): 2.13
- fold_change Sca_2397 (ThiJ/PfpI family protein): 4.76
- fold_change gtaB (UTP-glucose-1-phosphate uridyltransferase): 0.5
- fold_change Sca_0065 (acetoin reductase): 4.35
- fold_change mecA (adaptor protein, gene SCA_0598): 2.48
- fold_change glpD (aerobic glycerol-3-phosphate dehydrogenase): 2.81
- fold_change Sca_2335 (alcohol dehydrogenase, zinc-containing, gene gutB): 2.81
- fold_change ahpC (alkyl hydroperoxide reductase subunit C): 5.8
- fold_change ahpF (alkyl hydroperoxide reductase subunit F): 5.74
- fold_change lrgB (antiholin-like protein LrgB): 5.42
- fold_change capM (capsular polysaccharide synthesis enzyme Cap5M): 0.49
- fold_change katA (catalase): 2.04
- fold_change dnaJ (chaperone protein DnaJ): 2.06
- fold_change uvrA (excinuclease ABC subunit A): 3.06
- fold_change uvrB (excinuclease ABC subunit B): 3.63
- fold_change uvrC (excinuclease ABC subunit C): 2.28
- fold_change Sca_1475 (formate dehydrogenase): 2.72
- fold_change fdh (formate dehydrogenase): 3.34
- fold_change (gene SCA_0282 (thrS), threonyl-tRNA synthetase): 0.44
- fold_change (gene Sca_0027 (ssb), putative single-strand DNA-binding protein): 0.48
- fold_change (gene Sca_0095, putative autolysin with LysM domain): 0.47
- fold_change (gene Sca_0210, Choloylglycine hydrolase family protein): 0.42
- fold_change (gene Sca_0261, FecCD transport family protein): 0.48
- fold_change (gene Sca_0273, putative lipoprotein, AdhesinB family protein): 0.41
- fold_change (gene Sca_0274, putative ABC transporter permease): 0.44
- fold_change (gene Sca_0348 (fruA), putative fructose specific permease): 0.49
- fold_change (gene Sca_0374, putative proton-dependent oligopeptide transporter): 0.43
- fold_change (gene Sca_0418, putative branched-chain amino acid transport system II carrier protein): 0.4
- fold_change (gene Sca_0437 (csp), putative cold-shock protein): 0.43
- fold_change (gene Sca_0445, hypothetical protein): 0.43
- fold_change (gene Sca_0446, hypothetical protein): 0.45
- fold_change (gene Sca_0547, cytosol aminopeptidase family protein): 0.42
- fold_change (gene Sca_0617, hypothetical protein): 0.45
- fold_change (gene Sca_0626, putative sodium transport protein): 0.4
- fold_change (gene Sca_0661): 0.41
- fold_change (gene Sca_0724, putative DNA binding protein): 0.44
- fold_change (gene Sca_0743, hypothetical protein): 0.4
- fold_change (gene Sca_0749, hypothetical protein): 0.48
- fold_change (gene Sca_0919, hypothetical protein): 0.44
- fold_change (gene Sca_0920, hypothetical protein): 0.46
- fold_change (gene Sca_0975, putative amino acid permease): 0.46
- fold_change (gene Sca_0984, hypothetical protein): 0.41
- fold_change (gene Sca_1053, hypothetical protein): 0.47
- fold_change (gene Sca_1134, hypothetical protein): 0.45
- fold_change (gene Sca_1194, hypothetical protein): 0.48
- fold_change (gene Sca_1195): 0.43
- fold_change (gene Sca_1364 (leuS''), leucyl-tRNA synthetase (fragment 2)): 0.47
- fold_change (gene Sca_1365 (leuS'), leucyl-tRNA synthetase (fragment 1)): 0.4
- fold_change (gene Sca_1388, hypothetical protein): 0.46
- fold_change (gene Sca_1421, hypothetical protein): 0.46
- fold_change (gene Sca_1425, hypothetical protein): 0.45
- fold_change (gene Sca_1427, hypothetical protein): 0.41
- fold_change (gene Sca_1433, hypothetical protein): 0.44
- fold_change (gene Sca_1450, hypothetical protein): 0.41
- fold_change (gene Sca_1584, hypothetical protein): 0.47
- fold_change (gene Sca_1777, hypothetical protein): 0.41
- fold_change (gene Sca_1794, hypothetical protein): 0.43
- fold_change (gene Sca_1832, hypothetical protein): 0.42
- fold_change (gene Sca_1870, hypothetical protein): 0.45
- fold_change (gene Sca_1880, hypothetical protein): 0.46
- fold_change (gene Sca_1922, putative integral membrane efflux protein): 0.41
- fold_change (gene Sca_1980, putative L-serine dehydratase beta chain): 0.42
- fold_change (gene Sca_1997, hypothetical protein): 0.49
- fold_change (gene Sca_2043, hypothetical protein): 0.46
- fold_change (gene Sca_2184, hypothetical protein): 0.4
- fold_change (gene Sca_2345, hypothetical protein): 0.41
- fold_change (gene Sca_2346, putative capsular polysaccharide biosynthesis protein): 0.41
- fold_change (gene Sca_2352, hypothetical protein): 0.48
- fold_change (gene Sca_2411): 0.47
- fold_change (gene apbA, putative 2-dehydropantoate 2-reductase): 0.47
- fold_change (gene aspS, aspartyl-tRNA synthetase): 0.43
- fold_change (gene atpD, F0F1 ATP synthase subunit beta): 0.41
- fold_change (gene capB, capsular polysaccharide biosynthesis protein): 0.43
- fold_change (gene ctaB, protoheme IX farnesyltransferase): 0.41
- fold_change (gene cysE, serine acetyltransferase): 0.46
- fold_change (gene deoD, purine nucleoside phosphorylase): 0.48
- fold_change (gene engB (SCA_1279), ribosome biogenesis GTP-binding protein YsxC): 0.47
- fold_change (gene fbp, putative fructose-bisphosphatase): 0.41
- fold_change (gene fecB, putative ferrichrome ABC transporter (binding protein)): 0.42
- fold_change (gene fruB, putative fructose 1-phosphate kinase): 0.42
- fold_change (gene gcvH (gcdH), glycine cleavage system protein H): 0.45
- fold_change (gene gcvPB' (gcvPB''), glycine dehydrogenase [decarboxylating] subunit 2(fragment 1)): 0.43
- fold_change (gene gntR, putative gluconate operon transcriptional repressor): 0.47
- fold_change (gene gudB, NAD-specific glutamate dehydrogenase): 0.47
